Experimental data published in patent US11427548B2 (Arvinas Operations, Inc., priority 2015, dated 2022).
Where two headings read alike, the source gives them in different places.

Target: T1, Androgen Receptor (Homo sapiens, UniProt P10275)
T1 construct: endogenous in cells; host or cells: VCaP cells
T1 sequence (P10275 1-920): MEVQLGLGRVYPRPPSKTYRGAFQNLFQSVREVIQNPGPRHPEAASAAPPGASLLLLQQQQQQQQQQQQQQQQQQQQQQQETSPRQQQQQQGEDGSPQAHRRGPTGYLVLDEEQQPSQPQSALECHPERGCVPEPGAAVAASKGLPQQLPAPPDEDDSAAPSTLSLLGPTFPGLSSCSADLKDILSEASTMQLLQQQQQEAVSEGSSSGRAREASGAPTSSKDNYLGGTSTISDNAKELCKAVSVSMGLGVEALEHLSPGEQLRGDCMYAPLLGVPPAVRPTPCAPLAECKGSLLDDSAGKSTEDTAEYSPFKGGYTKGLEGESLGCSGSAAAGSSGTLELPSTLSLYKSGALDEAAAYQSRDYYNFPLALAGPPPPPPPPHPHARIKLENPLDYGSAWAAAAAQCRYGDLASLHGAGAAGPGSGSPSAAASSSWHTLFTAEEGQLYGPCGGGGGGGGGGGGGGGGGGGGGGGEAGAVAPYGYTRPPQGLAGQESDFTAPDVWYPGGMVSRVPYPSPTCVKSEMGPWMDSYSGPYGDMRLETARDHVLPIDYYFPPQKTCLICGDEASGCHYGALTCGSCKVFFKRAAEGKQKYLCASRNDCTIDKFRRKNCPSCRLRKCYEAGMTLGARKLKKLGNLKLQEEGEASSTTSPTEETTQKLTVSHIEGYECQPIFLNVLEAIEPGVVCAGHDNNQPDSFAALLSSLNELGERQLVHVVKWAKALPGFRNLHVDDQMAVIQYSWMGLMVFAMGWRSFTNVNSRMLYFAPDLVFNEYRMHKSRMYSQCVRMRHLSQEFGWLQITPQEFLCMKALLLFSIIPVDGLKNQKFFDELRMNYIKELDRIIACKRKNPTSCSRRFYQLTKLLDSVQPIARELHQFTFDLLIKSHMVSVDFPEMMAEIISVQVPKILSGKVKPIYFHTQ
Assay: Androgen Receptor ELISA assay (PathScan AR ELISA) in VCaP cells: AR degradation, Dmax and DC50
Format: cell-based
Summary of the method: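 VCaP cells in phenol red-free RPMI with 5% charcoal-stripped FBS were grown at least 3 days, then given compound as 7 half-log doses in 0.1% DMSO with 0.1 nM R1881 for 24 h. Lysates went into a sandwich AR ELISA with TMB read at 450 nm.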

[1] = read-out: VCaP DC50; concentration that caused 50% Androgen Receptor degradation, VCaP cells (Table 32)
[2] = VCaP, highest percentage of Androgen Receptor degradation observed, VCaP cells (Table 32); read-out: VCaP Dmax (%)
[3] = concentration that caused 50% Androgen Receptor degradation, VCaP cells (Table 32); read-out: VCaP DC50

| SMILES | Dmax [2] [%] | DC50 [3] [nM] | Dmax (VCaP, read-out: VCaP Dmax (%)) [%] | DC50 [1] [nM] |
| --- | --- | --- | --- | --- |
| Cc1ncsc1-c1ccc(CNC(=O)[C@@H]2C[C@@H](O)CN2C(=O)[C@@H](NC(=O)COCCC[C@@H](C)Oc2ccc(-c3ccc(N4C(=S)N(c5ccc(C#N)c(C(F)(F)F)c5)C(=O)C4(C)C)cc3)cc2)C(C)(C)C)cc1 [Example 141, (2S,4R)-1-[(2S)-2-(2-{[(4S)-4-[4-(4-{3-[4-cyano-3-(trifluoromethyl)phenyl]-5,5-dimethyl-4-oxo-2-sulfanylideneimidazolidin-1-yl}phenyl)phen-oxy]pentyl]oxy}acetamido)-3,3-dimethylbutanoyl]-4-hydroxy-N-{[4-(4-methyl-1,3-thiazol-5-yl)phenyl]methyl}pyrrolidine-2-carboxamide] |  |  | > 71 | < 50 |
| Cc1ncsc1-c1ccc(CNC(=O)[C@@H]2C[C@@H](O)CN2C(=O)[C@@H](NC(=O)COCCC[C@H](C)Oc2ccc(-c3ccc(N4C(=S)N(c5ccc(C#N)c(C(F)(F)F)c5)C(=O)C4(C)C)cc3)cc2)C(C)(C)C)cc1 [Example 142, (2S,4R)-1-[(2S)-2-(2-{[(4R)-4-[4-(4-{3-[4-cyano-3-(trifluoromethyl)phenyl]-5,5-dimethyl-4-oxo-2-sulfanylideneimidazolidin-1-yl}phenyl)phen-oxy]pentyl]oxy}acetamido)-3,3-dimethylbutanoyl]-4-hydroxy-N-{[4-(4-methyl-1,3-thiazol-5-yl)phenyl]methyl}pyrrolidine-2-carboxamide] |  |  | > 71 | < 50 |
| Cc1ncsc1-c1ccc([C@H](C)NC(=O)[C@@H]2C[C@@H](O)CN2C(=O)[C@@H](NC(=O)COCCCCNc2ccc(-c3ccc(N4C(=S)N(c5ccc(C#N)c(C(F)(F)F)c5)C(=O)C4(C)C)cc3)cc2)C(C)(C)C)cc1 [Example 145, (2S,4R)-1-[(2S)-2-[2-(4-{[4-(4-{3-[4-cyano-3-(trifluoromethyl)phenyl]-5,5-dimethyl-4-oxo-2-sulfanylideneimidazolidin-1-yl}phenyl)phen-yl]amino}butoxy)acetamido]-3,3-dimethylbutanoyl]-4-hydroxy-N-[(1S)-1-[4-(4-methyl-1,3-thiazol-5-yl)phenyl]ethyl]pyrrolidine-2-carboxamide] |  |  | > 71 | < 50 |
| Cc1ncsc1-c1ccc(CNC(=O)[C@@H]2C[C@@H](O)CN2C(=O)[C@@H](NC(=O)COCCCCOc2ccc(-c3ccc(N4C(=S)N(c5ccc(C#N)c(C(F)(F)F)c5)C(=O)C4(C)C)cc3)c(F)c2)C(C)(C)C)cc1 [Example 149, (2S,4R)-1-[(2S)-2-(2-{4-[4-(4-{3-[4-cyano-3-(trifluoromethyl)phenyl]-5,5-dimethyl-4-oxo-2-sulfanylideneimidazolidin-1-yl}phenyl)-3-fluorophenoxy]butoxy}acetamido)-3,3-dimethylbutanoyl]-4-hydroxy-N-{[4-(4-methyl-1,3-thiazol-5-yl)phenyl]methyl}pyrrolidine-2-carboxamide] |  |  | > 71 | < 50 |
| Cc1ncsc1-c1ccc(CNC(=O)[C@@H]2C[C@@H](O)CN2C(=O)[C@@H](NC(=O)COCCCCCOc2ccc(C(=O)N[C@H]3C(C)(C)[C@H](Oc4ccc(C#N)c(C(F)(F)F)c4)C3(C)C)cc2)C(C)(C)C)cc1 [Example 155, (2S,4R)-1-[(2S)-3,3-dimethyl-2-(2-{[5-(4-{[trans-3-[4-cyano-3-(trifluoromethyl)phenoxy]-2,2,4,4-tetramethylcyclobutyl]carbamoyl}phen-oxy)pentyl]oxy}acetamido)butanoyl]-4-hydroxy-N-{[4-(4-methyl-1,3-thiazol-5-yl)phenyl]methyl}pyrrolidine-2-carboxamide] | > 71 | < 50 |  |  |
| Cc1ncsc1-c1ccc(CNC(=O)[C@@H]2C[C@@H](O)CN2C(=O)[C@@H](NC(=O)CO[C@H](C)CCCCOc2ccc(C(=O)N[C@H]3C(C)(C)[C@H](Oc4ccc(C#N)c(Cl)c4)C3(C)C)cc2)C(C)(C)C)cc1 [Example 158, (2S,4R)-1-[(2S)-3,3-dimethyl-2-(2-{[(2R)-6-(4-{[trans-3-(3-chloro-4-cyanophenoxy)-2,2,4,4-tetramethylcyclobutyl]carbamoyl}phen-oxy)hexan-2-yl]oxy}acetamido)butanoyl]-4-hydroxy-N-{[4-(4-methyl-1,3-thiazol-5-yl)phenyl]methyl}pyrrolidine-2-carboxamide] | > 71 | < 50 |  |  |
| Cc1ncsc1-c1ccc(CNC(=O)[C@@H]2C[C@@H](O)CN2C(=O)[C@@H](NC(=O)CO[C@@H](C)CCCCOc2ccc(C(=O)N[C@H]3C(C)(C)[C@H](Oc4ccc(C#N)c(Cl)c4)C3(C)C)cc2)C(C)(C)C)cc1 [Example 159, (2S,4R)-1-[(2S)-3,3-dimethyl-2-(2-{[(2S)-6-(4-{[trans-3-(3-chloro-4-cyanophenoxy)-2,2,4,4-tetramethylcyclobutyl]carbamoyl}phen-oxy)hexan-2-yl]oxy}acetamido)butanoyl]-4-hydroxy-N-{[4-(4-methyl-1,3-thiazol-5-yl)phenyl]methyl}pyrrolidine-2-carboxamide] | > 71 | < 50 |  |  |
| Cc1ncsc1-c1ccc(CNC(=O)[C@@H]2C[C@@H](O)CN2C(=O)[C@@H](NC(=O)COCCCC[C@@H](C)Oc2ccc(C(=O)N[C@H]3C(C)(C)[C@H](Oc4ccc(C#N)c(Cl)c4)C3(C)C)cc2)C(C)(C)C)cc1 [Example 160, (2S,4R)-1-[(2S)-3,3-dimethyl-2-(2-{[(5S)-5-(4-{[trans-3-(3-chloro-4-cyanophenoxy)-2,2,4,4-tetramethylcyclobutyl]carbamoyl}phen-oxy)hexyl]oxy}acetamido)butanoyl]-4-hydroxy-N-{[4-(4-methyl-1,3-thiazol-5-yl)phenyl]methyl}pyrrolidine-2-carboxamide] | > 71 | < 50 |  |  |

Second part, led by results:

| Dmax [2] [%] | DC50 [3] [nM] | SMILES | Dmax (VCaP, read-out: VCaP Dmax (%)) [%] | DC50 [1] [nM] |
| --- | --- | --- | --- | --- |
| > 71 | < 50 | Cc1ncsc1-c1ccc(CNC(=O)[C@@H]2C[C@@H](O)CN2C(=O)[C@@H](NC(=O)COCCCCCOc2ccc(C(=O)N[C@H]3C(C)(C)[C@H](Oc4ccc(C#N)c(Cl)c4)C3(C)C)cc2)C(C)(C)C)cc1 [Example 151, (2S,4R)-1-[(2S)-3,3-dimethyl-2-(2-{[5-(4-{[trans-3-(3-chloro-4-cyanophenoxy)-2,2,4,4-tetramethylcyclobutyl]carbamoyl}phen-oxy)pentyl]oxy}acetamido)butanoyl]-4-hydroxy-N-{[4-(4-methyl-1,3-thiazol-5-yl)phenyl]methyl}pyrrolidine-2-carboxamide] |  |  |
| > 71 | < 50 | Cc1ncoc1-c1ccc(CNC(=O)[C@@H]2C[C@@H](O)CN2C(=O)[C@@H](NC(=O)COCCCCCOc2ccc(C(=O)NC3C(C)(C)C(Oc4ccc(C#N)c(Cl)c4)C3(C)C)cc2)C(C)(C)C)cc1 (stereo partly drawn) [Example 152, (2S,4R)-1-[(2S)-3,3-dimethyl-2-(2-{[5-(4-{[trans-3-(3-chloro-4-cyanophenoxy)-2,2,4,4-tetramethylcyclobutyl]carbamoyl}phen-oxy)pentyl]oxy}acetamido)butanoyl]-4-hydroxy-N-{[4-(4-methyl-1,3-oxazol-5-yl)phenyl]methyl}pyrrolidine-2-carboxamide] |  |  |
| > 71 | < 50 | CC(C)(C)[C@H](NC(=O)COCCCCCOc1ccc(C(=O)N[C@H]2C(C)(C)[C@H](Oc3ccc(C#N)c(Cl)c3)C2(C)C)cc1)C(=O)N1C[C@H](O)C[C@H]1C(=O)NCc1ccc(-c2cnco2)cc1 [Example 153, (2S,4R)-1-[(2S)-3,3-dimethyl-2-(2-{[5-(4-{[trans-3-(3-chloro-4-cyanophenoxy)-2,2,4,4-tetramethylcyclobutyl]carbamoyl}phen-oxy)pentyl]oxy}acetamido)butanoyl]-4-hydroxy-N-{[4-(1,3-oxazol-5-yl)phenyl]methyl}pyrrolidine-2-carboxamide] |  |  |
| > 71 | < 50 | Cc1ncoc1-c1ccc(CNC(=O)[C@@H]2C[C@@H](O)CN2C(=O)[C@@H](NC(=O)COCCCCCOc2ccc(C(=O)N[C@H]3C(C)(C)[C@H](Oc4ccc(C#N)c(C(F)(F)F)c4)C3(C)C)cc2)C(C)(C)C)cc1 [Example 154, (2S,4R)-1-[(2S)-3,3-dimethyl-2-(2-{[5-(4-{[trans--3-[4-cyano-3-(trifluoromethyl)phenoxy]-2,2,4,4-tetramethylcyclobutyl]carbamoyl}phen-oxy)pentyl]oxy}acetamido)butanoyl]-4-hydroxy-N-{[4-(4-methyl-1,3-oxazol-5-yl)phenyl]methyl}pyrrolidine-2-carboxamide] |  |  |
